{
  "source": "paper PMC8599855",
  "about": "“Detection of cancer stem cells by EMT-specific biomarker-based peptide ligands” (Scientific Reports, 2021)",
  "key": {"SAS-EGFP-Fluc tumor": {"tested_on": "SAS-EGFP-Fluc tumor", "test": "SAS xenograft mouse model: tumor burden by bioluminescence, CD44 in excised tumors", "format": "in vivo", "method": "Frozen tissues sections or cell culture slides were fixed in 4% paraformaldehyde, washed with PBS and permeated with 0.1% Triton X-100 for 5 min before blocking with 20% FBS for 10 min at 37 °C, followed by the incubation with anti-vimentin antibody (cat. MAB3400, Millipore, Bedford, MA, USA) at 4 °C overnight. Sections were washed three times in PBS, each wash lasting 5 min then stained with Cy5-conjugated goat anti- mouse IgG (1:1000, cat. ab6563, Abcam, Cambridge, UK) for 1 h in the dark. All slides were mounted with VECTASHIELD Mounting Medium with DAPI (cat. H-1200, Vector Labs, Burligame, CA, USA) and covered with cover glasses before visualization under a laser-scanning confocal microscope (Zeiss LSM 880, Jena, Germany) with Zen Blue software (ZEISS, Jena, Germany).\nAll animal procedures were performed in accordance with the Guide for Care and Use of Laboratory Animals and National Yang-Ming University’s IACUC number was 1080110. Immunodeficient male mice (BALB/cAnNCrj-nu/nu, six weeks old, 20 gm) were provided by National Laboratory Animal Center (NLAC), NARLabs, Taiwan. Mice were group-housed (6 animals per cage) in individually ventilated cages (IVC) systems and had unlimited access to food and water. […] For establishment of xenografts, 2 × 10^6 SAS-EGFP-Fluc cells in 100 μL phosphate-buffered saline (PBS) were injected subcutaneously into the animal's right shoulder and 2 × 10^6 SAS-wt cells were injected into the left leg. Growth of the implanted tumors was monitored twice a week and tumor volumes were estimated from caliper measurements according to the following formula: tumor volume = (lengthÍwidth^2) Í0.523. […]\nTumor-bearing mice were anaesthetized with 2% isoflurane and then injected D-luciferin (150 mg/kg body weight diluted in PBS) into the mouse peritoneum. […] The luminescent intensity at tumor sites was analyzed using living image software 3.2 (IVIS 50 Imaging System, Perkin Elmer, Waltham, MA, USA). Bioluminescent signal was recorded as mean photons/s/centimeter^2/steradian (photon/s/cm^2/sr)."}, "[1]": {"details": "UNC0642 5 mg/kg body weight, UBC xenograft model, any time point post-treatment; cited from earlier work", "from_the_text": "In the current study, we successfully established a protocol for EMT induction via the combination of the G9a inhibitor and low-dose IR. G9a, mainly catalyzes histone H3K9 methylation, is shown to be overexpressed in many types of cancers, including gastric cancer, ovarian cancer, head and neck cancer, etc. Higher G9a expression levels represent higher methylation levels, thus leading to the transcriptional repression of tumor-suppressor genes and are also associated with poor prognosis in patients. Liu et al. explored that snail-induced EMT and repression of E-cadherin in head and neck sq ..."}},
  "data": [
    {"smiles": "COc1cc2c(NC3CCN(C(C)C)CC3)nc(N3CCC(F)(F)CC3)nc2cc1OCCCN1CCCC1", "note": "[Unc0642]", "values": [
      {"measurement": "Tumor growth (Fluc signal)", "setting": "SAS-EGFP-Fluc tumor; Unc0642 2.5 mg/kg i.p. every two days for 3 times, alone, versus DMSO control, day 18", "value": "clear delay in tumor growth"},
      {"measurement": "Tumor growth (Fluc signal)", "setting": "SAS-EGFP-Fluc tumor; Unc0642 2.5 mg/kg i.p. plus 2 Gy IR, every two days for 3 times", "value": "no significant reduction was observed in Unc0642 plus IR treated mice until Day 21, but drastically dropped down on day 24"},
      {"measurement": "CD44 expression in excised tumors", "setting": "SAS-EGFP-Fluc tumor; Unc0642/IR alone or Unc0642 plus IR groups versus control, IF staining", "value": "higher CD44 expression"},
      {"measurement": "Body weight versus vehicle-treated group", "setting": "[1]", "value": "no significant weight changes"}
    ]}
  ]
}
